Consider 20 molecules from US20230062119A1, “USE OF BIOMARKERS IN IDENTIFYING PATIENTS THAT WILL BE RESPONSIVE TO TREATMENT WITH A PRMT5 INHIBITOR” (Merck Sharp & Dohme LLC, priority 2019, published 2023).

This experiment deals with T1, Full-length (FL)-PRMT5-MEP50 enzyme complex (Homo sapiens, UniProt O14744).
T1 construct: Full-length (FL)-PRMT5-MEP50 enzyme complex (recombinant proteins from baculovirus-transfected Sf21 cells: FL-PRMT5; MW=73837 kDa and FL-MEP50; MW=38614); made in house; host or cells: baculovirus-transfected Sf21 insect cells
Briefly: PRMT5-MEP50 Enzyme Methylation Assay. The class given is biochemical. The settings on record: 1.0 nM PRMT5-MEP50, 75 nM biotinylated peptide, 15 μM SAM. As to the method: PRMT5-MEP50 biochemical assay is a direct measurement of the methylation activity of the enzyme complex on a short peptide substrate derived from the N-terminus of H4 histone. Methylation experiment is performed with recombinant PRMT5-MEP50 protein complex. The assessment of inhibitory effect of small molecules is measured by the effectiveness of the compounds to inhibit this reaction (EC50).
In this assay, the potency (EC50) of each compound was determined from a twenty-point (1:2 serial dilution; top compound concentration of 100000 nM) titration curve using the following outlined procedure. To each well of a white ProxiPlus 384 well-plate, 100 nL of compound (1% DMSO in final assay volume of 10 μL) was dispensed, followed by the addition of 8 μL of 1× assay buffer (50 mM Bicine pH 8.0, 1 mM DTT, 0.004% Tween20, 0.01% BSA) containing 1.25 nM of Full-length (FL)-PRMT5-MEP50 enzyme complex (recombinant proteins from baculovirus-transfected Sf21 cells: FL-PRMT5; MW=[…] and FL-MEP50; MW=38614) and 1 μL of 150 μM S-(5′-Adenosyl)-L-Methionine Chloride (SAM). Plates were sealed and placed in a 37° C. humidified chamber for a 60 minutes pre-incubation with compound. Subsequently, each reaction was initiated by the addition of 1 μL 1× assay buffer containing 750 nM biotinylated H4R3(Mel) peptide. The final reaction in each well of 10 μL consists of 1.0 nM PRMT5-MEP50, 75 nM biotinylated-peptide, and 15 μM SAM. Methylation reactions proceeded for 150 minutes in a sealed plate at 37° C. Reactions were immediately quenched by the addition of 1 μL of 5% formic acid. Plates were then frozen and shipped to SAMDI™ Tech Inc. to determine the percent conversion from H4R3(Mel) to H4R3(Me2). Dose-response curves were generated by plotting percent effect (% product conversion; Y-axis) vs. Log 10 compound concentrations (X-axis). EC50 values were determined by non-linear regression according to models for either sigmoidal (4 parameters) or biphasic (7 parameters) dose-response curves.

[1] abbreviates: one EC50: 4 parameters single site sigmoidal model, EC50 1: first value of 7 parameters biphasic model, read-out: Enzyme Methylation Assay (EC50 or EC50 1).
[2] abbreviates: second EC50 of 7 parameters biphasic model, read-out: Enzyme Methylation Assay (EC50 2).

Where two headings read alike, the source gives them in different places.

T1 sequence (O14744 whole entry): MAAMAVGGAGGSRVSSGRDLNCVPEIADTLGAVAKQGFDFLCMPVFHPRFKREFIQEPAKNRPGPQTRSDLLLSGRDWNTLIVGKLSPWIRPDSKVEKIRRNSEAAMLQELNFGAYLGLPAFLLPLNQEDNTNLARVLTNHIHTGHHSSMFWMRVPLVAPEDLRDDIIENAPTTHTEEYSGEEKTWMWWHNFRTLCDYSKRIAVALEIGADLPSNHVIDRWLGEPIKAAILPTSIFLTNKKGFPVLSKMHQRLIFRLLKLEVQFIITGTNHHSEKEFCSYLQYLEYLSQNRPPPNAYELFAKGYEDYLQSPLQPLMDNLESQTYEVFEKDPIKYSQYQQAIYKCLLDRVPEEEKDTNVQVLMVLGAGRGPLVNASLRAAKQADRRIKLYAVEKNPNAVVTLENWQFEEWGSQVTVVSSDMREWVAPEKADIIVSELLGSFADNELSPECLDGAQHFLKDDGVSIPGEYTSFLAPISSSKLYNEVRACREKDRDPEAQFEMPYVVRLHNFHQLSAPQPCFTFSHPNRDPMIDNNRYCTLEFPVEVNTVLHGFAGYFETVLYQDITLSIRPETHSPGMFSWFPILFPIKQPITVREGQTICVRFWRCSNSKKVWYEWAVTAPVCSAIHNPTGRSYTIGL
T1 sequence (Q9BQA1 whole entry partner): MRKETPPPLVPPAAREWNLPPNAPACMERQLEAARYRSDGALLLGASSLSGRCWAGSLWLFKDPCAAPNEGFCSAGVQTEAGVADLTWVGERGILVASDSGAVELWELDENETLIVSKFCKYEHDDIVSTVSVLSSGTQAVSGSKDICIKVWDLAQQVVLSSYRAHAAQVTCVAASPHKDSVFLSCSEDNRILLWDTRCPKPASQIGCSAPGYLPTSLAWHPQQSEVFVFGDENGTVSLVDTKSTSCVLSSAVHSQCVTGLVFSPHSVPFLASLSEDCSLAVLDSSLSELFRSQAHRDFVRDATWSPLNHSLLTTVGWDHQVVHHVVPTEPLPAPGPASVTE

As usually defined, the EC50 is the concentration giving half of the maximal effect. As to `Nc1nc2cc(C[C@@H]3CC[C@@]4(O)[C@@H]3C[C@@H](n3cc(F)c5c(N)ncnc53)[C@@H]4O)ccc2cc1Cl` [Example 34, (1S,2R,3aR,4S,6aR)-4-((2-amino-3-chloroquinolin-7-yl)methyl)-2-(4-amino-5-fluoro-7H-pyrrolo[2,3-d]pyrimidin-7-yl)hexahydropentalene-1,6a(1H)-diol], under setting [1], the EC50 was 0.3 nM.

With `Nc1nc2cc(C[C@@H]3CC[C@@]4(O)[C@@H]3C[C@@H](n3cc(F)c5c(N)ncnc53)[C@@H]4O)ccc2cc1F` [Example 33, (1S,2R,3aR,4S,6aR)-4-((2-amino-3-fluoroquinolin-7-yl)methyl)-2-(4-amino-5-fluoro-7H-pyrrolo[2,3-d]pyrimidin-7-yl)hexahydropentalene-1,6a(1H)-diol], the EC50 under setting [1] was found to be 0.6 nM.

As to `COc1ncnc2c1ccn2[C@@H]1O[C@](C)(COc2ccc3cc(Br)c(N)nc3c2)[C@@H](O)[C@H]1O` [Example 12, (2R,3S,4R,5R)-2-(((2-amino-3-bromoquinolin-7-yl)oxy)methyl)-5-(4-methoxy-7H-pyrrolo[2,3-d]pyrimidin-7-yl)-2-methyltetrahydrofuran-3,4-diol], the EC50 under setting [1] was 33 nM and the EC50 under setting [2] was 20900 nM.

Consider `Cc1ncnc2c1ccn2[C@@H]1O[C@@H]2[C@@H](Oc3ccc4cc(F)c(N)nc4c3)CC[C@]2(O)[C@H]1O` [Example 86, (2R,3R,3aS,6S,6aR)-6-((2-amino-3-fluoroquinolin-7-yl)oxy)-2-(4-methyl-7H-pyrrolo[2,3-d]pyrimidin-7-yl)hexahydro-3aH-cyclopenta[b]furan-3,3a-diol], for which the EC50 reads like this: under setting [1], 0.5 nM; under setting [2], 63.8 nM.

For `Nc1nc2cc(O[C@H]3CC[C@@]4(O)[C@@H]3O[C@@H](n3ccc5c(N)ncnc53)[C@@H]4O)ccc2cc1Br` [Example 6, (2R,3R,3aS,6S,6aR)-6-((2-amino-3-bromoquinolin-7-yl)oxy)-2-(4-amino-7H-pyrrolo[2,3-d]pyrimidin-7-yl)hexahydro-2H-cyclopenta[b]furan-3,3a-diol], the EC50 under setting [1] amounted to 0.6 nM.

With `Nc1nc2cc(C[C@@H]3CC[C@@]4(O)[C@@H]3O[C@@H](n3ccc5c(N)nc(F)nc53)[C@@H]4O)ccc2cc1F` [Example 45, (2R,3R,3aS,6S,6aR)-2-(4-amino-2-fluoro-7H-pyrrolo[2,3-d]pyrimidin-7-yl)-6-((2-amino-3-fluoroquinolin-7-yl)methyl)hexahydro-3aH-cyclopenta[b]furan-3,3a-diol], the EC50 under setting [1] was found to be 0.3 nM.

On to `Cc1nc(N)nc2c1ccn2[C@@H]1O[C@@H]2[C@H](Cc3ccc4cc(Br)c(N)nc4c3)CC[C@]2(O)[C@H]1O` [Example 127, (2R,3R,3aS,6S,6aR)-6-((2-amino-3-bromoquinolin-7-yl)methyl)-2-(2-amino-4-methyl-7H-pyrrolo[2,3-d]pyrimidin-7-yl)hexahydro-3aH-cyclopenta[b]furan-3,3a-diol], for which the 50% effective concentration (EC50) under setting [1] turned out to be 0.7 nM.

For `Cc1ncnc2c1ccn2[C@@H]1O[C@@H]2[C@H](Cc3ccc4ccc(N)nc4c3)CC[C@]2(O)[C@H]1O` [Example 107, (2R,3R,3aS,6S,6aR)-6-((2-aminoquinolin-7-yl)methyl)-2-(4-methyl-7H-pyrrolo[2,3-d]pyrimidin-7-yl)hexahydro-2H-cyclopenta[b]furan-3,3a-diol], the EC50 under setting [1] turned out to be 0.2 nM.

Consider `Cc1cc2ccc(OC[C@H]3C[C@@H](n4ccc5c(C)ncnc54)[C@H](O)[C@]3(C)O)cc2nc1N` [Example 106, (1R,2S,3R,5R)-5-(((2-amino-3-methylquinolin-7-yl)oxy)methyl)-1-methyl-3-(4-methyl-7H-pyrrolo[2,3-d]pyrimidin-7-yl)cyclopentane-1,2-diol], for which the EC50 under setting [1] amounted to 0.3 nM.

Turning to `C[C@]1(COc2ccc3cc(Br)c(N)nc3c2)C[C@@H](n2ccc3c(N)ncnc32)[C@H](O)[C@@H]1O` [Example 100, (1S,2R,3R,5R)-3-(((2-amino-3-bromoquinolin-7-yl)oxy)methyl)-5-(4-amino-7H-pyrrolo[2,3-d]pyrimidin-7-yl)-3-methylcyclopentane-1,2-diol], the EC50 stood at 0.6 nM under setting [1] and 32 nM under setting [2].

With `Cc1ncnc2c1ccn2[C@@H]1O[C@@H]2[C@H](Cc3ccc4cc(C(F)(F)F)c(N)nc4c3)CC[C@]2(O)[C@H]1O` [Example 88, (2R,3R,3aS,6S,6aR)-6-((2-amino-3-(trifluoromethyl)quinolin-7-yl)methyl)-2-(4-methyl-7H-pyrrolo[2,3-d]pyrimidin-7-yl)hexahydro-3aH-cyclopenta[b]furan-3,3a-diol], under setting [1], the EC50 was found to be 0.2 nM.

On to `Cc1ncnc2c1ccn2[C@@H]1C[C@](C)(CCc2ccc3cc(Br)c(N)nc3c2)[C@@H](O)[C@H]1O` [Example 109, (1S,2R,3S,5R)-3-(2-(2-amino-3-bromoquinolin-7-yl)ethyl)-3-methyl-5-(4-methyl-7H-pyrrolo[2,3-d]pyrimidin-7-yl)cyclopentane-1,2-diol], for which the EC50 under setting [1] worked out at 0.7 nM.

Consider `Nc1ccc2ccc(O[C@H]3CC[C@@]4(O)[C@@H]3O[C@@H](n3ccc5c(N)ncnc53)[C@@H]4O)cc2n1` [Example 104, (2R,3R,3aS,6S,6aR)-2-(4-amino-7H-pyrrolo[2,3-d]pyrimidin-7-yl)-6-((2-aminoquinolin-7-yl)oxy)hexahydro-2H-cyclopenta[b]furan-3,3a-diol], for which, under setting [1], the EC50 was 3.8 nM.

In the case of `Nc1nc2cc(C[C@@H]3CC[C@@]4(O)[C@@H]3O[C@@H](n3cc(F)c5c(N)ncnc53)[C@@H]4O)cc(F)c2cc1F` [Example 24, (2R,3R,3aS,6S,6aR)-6-((2-amino-3,5-difluoroquinolin-7-yl)methyl)-2-(4-amino-5-fluoro-7H-pyrrolo[2,3-d]pyrimidin-7-yl)hexahydro-3aH-cyclopenta[b]furan-3,3a-diol], the EC50 under setting [1] came to 0.4 nM.

For `C[C@]1(COc2ccc3cc(Br)c(N)nc3c2)C[C@@H](n2ccc3c(N)ncnc32)[C@H](O)[C@]1(C)O` [Example 111, (1R,2S,3R,5R)-5-(((2-amino-3-bromoquinolin-7-yl)oxy)methyl)-3-(4-amino-7H-pyrrolo[2,3-d]pyrimidin-7-yl)-1,5-dimethylcyclopentane-1,2-diol], the EC50 reads like this: under setting [1], 30.6 nM; under setting [2], 2660 nM.

`Cc1ncnc2c1ccn2[C@@H]1O[C@@H]2[C@H](Cc3ccc4cc(Cl)c(N)nc4c3F)CC[C@]2(O)[C@H]1O` [Example 22, (2R,3R,3aS,6S,6aR)-6-[(2-amino-3-chloro-8-fluoroquinolin-7-yl)methyl]-2-(4-methyl-7H-pyrrolo[2,3-d]pyrimidin-7-yl)hexahydro-3aH-cyclopenta[b]furan-3,3a-diol]: under setting [1], the EC50 came to 1 nM.

For `Cc1cn([C@@H]2C[C@@H]3[C@H](Cc4ccc5cc(Cl)c(N)nc5c4)CC[C@]3(O)[C@H]2O)c2ncnc(N)c12` [Example 39, (1S,2R,3aR,4S,6aR)-4-((2-amino-3-chloroquinolin-7-yl)methyl)-2-(4-amino-5-methyl-7H-pyrrolo[2,3-d]pyrimidin-7-yl)hexahydropentalene-1,6a(1H)-diol], the EC50 under setting [1] was 0.3 nM.

Turning to `C[C@@]1(O)[C@@H](COc2ccc3cc(Br)c(N)nc3c2)O[C@@H](n2ccc3c(N)ncnc32)[C@@H]1O` [Example 10, (2R,3S,4R,5R)-2-(((2-amino-3-bromoquinolin-7-yl)oxy)methyl)-5-(4-amino-7H-pyrrolo[2,3-d]pyrimidin-7-yl)-3-methyltetrahydrofuran-3,4-diol], the EC50 under setting [1] stood at 0.5 nM and the EC50 under setting [2] turned out to be 22 nM.

As to `Nc1nc2cc(CC3OC[C@@]4(O)C3C[C@@H](n3ccc5c(N)ncnc53)[C@@H]4O)ccc2cc1Br` (stereo partly drawn) [Example 132, (3aS,4S,5R)-1-((2-amino-3-bromoquinolin-7-yl)methyl)-5-(4-amino-7H-pyrrolo[2,3-d]pyrimidin-7-yl)tetrahydro-1H-cyclopenta[c]furan-3a,4(3H)-diol], the EC50 is, setting by setting: under setting [1], 3.9 nM; under setting [2], 3310 nM.

`C#C[C@@]1(O)[C@@H](COc2ccc3cc(Br)c(N)nc3c2)O[C@@H](n2ccc3c(N)ncnc32)[C@@H]1O` [Example 3, (2R,3S,4R,5R)-2-(((2-amino-3-bromoquinolin-7-yl)oxy)methyl)-5-(4-amino-7H-pyrrolo[2,3-d]pyrimidin-7-yl)-3-ethynyltetrahydrofuran-3,4-diol]: the EC50 reads like this: under setting [1], 0.8 nM; under setting [2], 193 nM.
